Entries after “also recorded” stand apart in the source; their conditions may differ. Read-outs that look alike come from different tables or passages of the source.
Tests used:
[1] = molecular target: PARP-1 (Homo sapiens, UniProt P09874); experiment: PARP-1 enzymatic activity assay (chemical quantification of NAD+)
Source text: This assay is based on the chemical quantification of NAD^+, i.e. the amount of NAD^+ consumed when the active PARP-1 C-terminal catalytic domain sequentially transfers ADP-ribose subunits from nicotinamide adenine dinucleotide (NAD^+) to protein acceptors.^7
High-specific-activity PARP-1 and activated DNA were purchased from Trevigen (Gaithersburg, Md.). All other reagents required for this assay including NAD^+ were purchased from Sigma-Aldrich (St. Louis, Mo.). Known PARP-1 inhibitor PJ-34, used as a control in these experiments, was synthesized in-house. […] A solution of 50 μg/mL of activated DNA was made in PARP assay buffer and 10 μL was added to each well. Stock solutions of test compounds were first prepared in DMSO, diluted to varying concentrations in PARP assay buffer, and 10 μL was added to each well. To initiate the reaction, 10 μL of 10 μg/mL PARP-1 enzyme in PARP assay buffer was added to each well. The total volume was 50 μL, bringing the final concentrations to 2 μg/mL PARP-1 enzyme, 10 μg mL activated DNA, and 100 nM NAD^+ per well. The plate was then incubated at room temperature for 20 min. The amount of NAD^+ present was then determined by first adding 20 μL 2 M KOH, followed by 20 μL of 20% acetophenone (in ethanol) to each well.

[2] = test system: MDA-MB-231 tumors; experiment: microPET imaging with [18F]12, MDA-MB-231 tumors; type: in vivo, mice; details: for effect of drug treatment on tracer uptake outside the tumor (microPET images): MDA-MB-231 tumor-bearing mice; for effect of drug treatment on tracer uptake outside the tumor (microPET images) / effect of drug treatment on tumor uptake of tracer (microPET images): 50 mg/kg IP 30 minutes before imaging; for effect of drug treatment on tumor uptake of tracer (microPET images) / tracer uptake, percent of injected dose per ml, after drug treatment vs baseline: MDA-MB-231 tumors; for tracer uptake, percent of injected dose per ml, after drug treatment vs baseline: 30 minutes after IP injection, paired t test
Protocol: (§1) This example illustrates the visualization of tumor tissue in microPET in mice. MDA-MB-436 human breast cancer xenograft tumors in immune-deficient mice were visualized by PET using [^18F]12.
(§2) Tumor-bearing mice were placed in an induction chamber containing ˜2% isoflurane/oxygen and then secured to a custom double bed for placement of tail vein catheters; anesthesia was maintained via nose-cone at ˜1% isoflurane/oxygen for the dynamic imaging procedure. The mice were injected with 150-200 μCi of [^18F]12 and scanned for 0-60 min using Focus 220 and Inveon PET/CT scanners. The standard uptake values (SUVs) were generated from manually drawn regions of interests for tumors and surrounding ‘background’ tissue. Visualization of specific uptake was determined by comparison of baseline scans with images acquired by tracer injection 20 minutes after pre-treatment with the blocking agents olaparib (50 mg/kg, IP) or 12 (1 mg/kg, IP).
(§3) This example illustrates uptake of Compound 12 ([^18F]WC-4-138) in mice. Mature female athymic nude mice (Charles River Laboratories) were implanted with 10^6 SCC1 cells or 10^7 MDA-MB-231 cells into the mammary fat pads. Mice bearing SCC1 tumors were imaged at 5 weeks and mice bearing MDA-MB-231 cells were imaged at 2.5 weeks after implant. Mice were anesthetized with 2% isoflurane/oxygen and maintained at 1% isoflurane/oxygen via nose cone throughout the imaging procedure. Whole animal microCT images were acquired on an Inveon PET/CT scanner. The mice were injected via tail vein with 11.36±0.5 MBq (307±13 μCi) of [^18F]WC(4)-138 and underwent a 60 minute dynamic scan using Focus 220 or Inveon PET/CT scanners. The microPET and microCT images were coregistered using Integrated Research Workflow software (Siemens). Regions of interest were drawn over tumors to determine time activity curves. For drug treatment studies, animals reached intraperitoneal injections of 50 mg/kg olaparib or iniparib 30 minutes before imaging. Mice were imaged at baseline, or 30 minutes after IP injection of olaparib or iniparib. Arrows indicate location of tumors as identified on CT.
(§4) In FIG. 8, mice were imaged at baseline, or 30 minutes after IP injection of olaparib or iniparib. (A) The percent of injected dose per ml was calculated for each MDA/MB-231 tumor at baseline or after drug treatment. […] Tracer uptake was unchanged in iniparib-treated mice (p=0.1098 as determined by a paired t test, n=6 tumors).

[3] = test system: SCC1 tumors; experiment: microPET imaging with [18F]WC-4-138, SCC1 tumors; type: in vivo, mice; details: 30 minutes after IP injection, paired t test
Source text: as §3, with “Mice were imaged at baseline, or 30 minutes after IP injection of olaparib or iniparib. Arrows indicate location of tumors as identified on CT.” left out
as §4

[4] = test system: head and neck cell lines SCC1 and SCC25; experiment: [18F]WC-4-138 uptake in cell culture, head and neck lines; type: cell-based; details: 10 μM drug prior to incubation with tracer
Protocol: In these experiments, the head and neck squamous cell carcinoma lines SCC1, SCC15, and SCC25 (ATCC) were propagated in Dulbecco's Modified Eagle's Medium (DMEM, Gibco) supplemented with 10% Fetal Bovine Serum (FBS, Gibco), Penicillin-Streptomycin (P/S, Gibco), and 100 ng/ml hydrocortisone (Sigma-Aldrich). The small cell lung cancer lines NCI-h69 and NCI-h82 (ATCC) were propagated m RPMI Medium (Gibco) supplemented with 10% FBS and 1% P/S. The human breast cancer cell line MDA-MB-231 (ATCC) was propagated in Eagle's Minimum Essential Medium (Gibco) supplemented with 5% FBS, 2% Vitamins for MEM (Gibco), 1% 200 mM L-glutamine (Gibco), 1% 10 mM Non-Essential Amino Acid (NEAA, Gibco).
For each experimental replicate, approximately 1 μCi of [^18F]WC-4-138 was diluted in 1 ml of cell culture medium and added to 10^6 cells. After 5, 30, or 60 minutes, the medium was collected and cells were washed twice in 0.7 ml Phosphate Buffered Saline (PBS, Gibco). Adherent cells were collected by scraping the cell culture dish and transferring to a microfuge tube. Radioactivity was measured in the collected medium, PBS, or cell pellets. Protein from the cell pellet was quantified using a […]. All data were decay-corrected and normalized to total protein quantity in the cell pellet. For drug treatment studies, cells were incubated with 10 μM Olaparib or Iniparib twenty-hours prior to incubation with [^18F]WC-4-138.
The head and neck cell lines SCC1 and SCC25 constitutively take up small amounts of tracer, registering as 0.001-0.002 μCi/μg in the cell pellet (FIG. 5A). […] Radioactivity was measured in head and neck squamous cell cancer (HNSCC) lines (SCC1 and SCC25) or small cell lung cancer (SCLC) lines (NCI-h69 and NCI-h82) after incubation with [^18F]WC-4-138 for 5, 30, or 60 minutes (n=3 at each time point). […] PARP activity was measured in HNSCC or lung SCLC cells. (FIG. 5C-D) [^18F]WC-4-138 uptake was measured in HNSCC cell lines treated with olaparib or iniparib. […]

[5] = test system: MDA-MB-436 tumors; experiment: microPET imaging with [18F]12, MDA-MB-436 xenograft tumors; type: in vivo, mice; details: olaparib 50 mg/kg i.p. or 12 1 mg/kg i.p., 20 min prior to tracer
Protocol: as §1
MDA-MB-436 and MDA-MB-231 human breast cancer cells were maintained in cell culture under standard conditions with 5% CO2 atmosphere using Eagle's minimum essential medium (with Earle's balanced salt solution and 2 mM L-glutamine) supplemented with 2 mM E-glutamine, 1 mM sodium pyruvate, 0.1 mM non-essential amino acids 2% vitamins for MEM, and 5% fetal bovine serum. Cells in exponential growth were trypsinized and harvested for tumor implantation. After counting, cells were re-suspended in ice-cold 1:1 Matrigel and PBS to give the desired concentration and held on ice.
Mature female athymic nu/nu mice from Charles River Laboratories are allowed to acclimate in an AALAC accredited housing facility for at least 1 week prior to tumor implantation for these serial imaging studies. Female nu/nu mice were implanted in the mammary fat pads (near the auxiliary lymph nodes) with ˜8×10^6 MDA-MB-436 breast cancer cells in ˜100 μL of 1:1 Matrigel:PBS. Imaging studies were conducted 2-3 weeks post implantation.
as §2

[6] = read-out: IC50 (nM), inhibition of PARP-1, mean ± SD, at least three independent experiments

Chain of PARP-1 (P09874 whole entry): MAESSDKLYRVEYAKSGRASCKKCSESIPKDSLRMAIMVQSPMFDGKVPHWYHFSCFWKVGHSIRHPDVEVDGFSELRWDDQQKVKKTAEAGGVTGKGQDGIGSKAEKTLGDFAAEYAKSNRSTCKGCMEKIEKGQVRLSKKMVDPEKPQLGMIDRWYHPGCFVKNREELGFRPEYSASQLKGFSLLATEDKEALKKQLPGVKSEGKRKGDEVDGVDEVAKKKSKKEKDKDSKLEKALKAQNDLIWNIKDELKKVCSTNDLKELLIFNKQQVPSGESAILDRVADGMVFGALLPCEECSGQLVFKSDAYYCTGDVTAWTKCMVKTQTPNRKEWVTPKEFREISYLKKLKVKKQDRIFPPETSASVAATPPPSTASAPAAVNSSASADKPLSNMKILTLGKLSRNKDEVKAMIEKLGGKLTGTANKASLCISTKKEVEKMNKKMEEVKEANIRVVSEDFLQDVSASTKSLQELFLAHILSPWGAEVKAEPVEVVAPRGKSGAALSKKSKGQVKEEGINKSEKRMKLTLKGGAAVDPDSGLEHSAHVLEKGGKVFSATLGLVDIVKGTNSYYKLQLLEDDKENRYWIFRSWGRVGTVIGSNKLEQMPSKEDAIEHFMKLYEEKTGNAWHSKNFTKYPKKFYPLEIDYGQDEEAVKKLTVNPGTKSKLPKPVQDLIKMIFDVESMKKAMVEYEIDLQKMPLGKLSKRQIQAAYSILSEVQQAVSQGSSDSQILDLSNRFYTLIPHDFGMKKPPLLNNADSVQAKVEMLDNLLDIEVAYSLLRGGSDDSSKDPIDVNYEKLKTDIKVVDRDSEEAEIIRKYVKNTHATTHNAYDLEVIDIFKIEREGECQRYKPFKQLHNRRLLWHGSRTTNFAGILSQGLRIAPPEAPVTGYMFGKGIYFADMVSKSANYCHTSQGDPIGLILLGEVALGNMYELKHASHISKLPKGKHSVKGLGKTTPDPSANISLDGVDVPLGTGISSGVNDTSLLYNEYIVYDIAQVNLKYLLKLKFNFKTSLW

## NC(=O)c1cccc2[nH]c(-c3ccc(OCCF)cc3)nc12 [Compound 8, 2-(4-(2-Fluoroethoxy)phenyl)-1H-benzo[d]imidazole-4-carboxamide]
[1]; read-out: IC50, inhibition of PARP-1, unit inferred
  IC50: 10.8 nM

## C#CCOc1ccc(-c2nc3c(C(N)=O)cccc3[nH]2)cc1 [Compound 9, 2-(4-(Prop-2-ynloxy)phenyl)-1H-benzo[d]imidazole-4-carboxamide]
[1]; [6]
  IC50: 25.8 ± 3.3 nM

## O=C1NCCn2c(-c3ccc(OCCF)cc3)nc3cccc1c32 [Compound 12, 5,6-Dihydro-2-(4-(2-fluoroethoxy)phenyl)-imidazo [4,5,1-jk][1,4]benezodiazepin-7(4H)-one]
[1]
  IC50: 63 nM

## C#CCOc1ccc(-c2nc3cccc4c3n2CCNC4=O)cc1 [Compound 13, 5,6-Dihydro-2-(4-(prop-2-ynyloxy)phenyl)-imidazo[4,5,1-jk][1,4]benzodiazepine-7(4H)-one]
[1]; [6]
  IC50: 18.7 ± 2.7 nM

## O=C1NCCn2c(-c3ccc(OCc4cn(CCF)nn4)cc3)nc3cccc1c32 [Compound 15, 5,6-Dihydro-2-(4-((1-(2-fluoroethyl)-1H-1,2,3-triazol-4-yl)methoxy)phenyl)-imidazo[4,5,1-jk][1,4]benzodiazepin-7(4H)-one]
[1]; [6]
  IC50: 22.1 ± 6.3 nM

## NC(=O)c1ccc(I)c([N+](=O)[O-])c1 [iniparib]
[2]
  effect of drug treatment on tracer uptake outside the tumor (microPET images): abolishes said uptake in other types of cells
  effect of drug treatment on tumor uptake of tracer (microPET images): does not effect the uptake
  tracer uptake, percent of injected dose per ml, after drug treatment vs baseline: unchanged
[3]
  tracer uptake, percent of injected dose per ml, after drug treatment vs baseline: unchanged
[4]
  effect of drug on [18F]WC-4-138 uptake in HNSCC cell lines: not

## O=C(c1cc(Cc2n[nH]c(=O)c3ccccc23)ccc1F)N1CCN(C(=O)C2CC2)CC1 [olaparib]
[5]
  effect of pretreatment on [18F]12 uptake in MDA-MB-436 tumors: decreased [^18F]12 uptake in the tumors to the background tissue activity levels; also recorded: significantly decreased [^18F]12 uptake; also recorded: blocked
[5]; listed as olaparib/AZD2281
  effect of pretreatment on [18F]12 uptake in MDA-MB-436 tumors: blocked
[2]
  effect of drug treatment on tracer uptake outside the tumor (microPET images): tracer is still present in other areas of the section
  effect of drug treatment on tumor uptake of tracer (microPET images): abolished
  tracer uptake, percent of injected dose per ml, after drug treatment vs baseline: significantly reduced
[2]; i.p. 50 mg/kg, 20 min pretreatment
  effect of pretreatment on [18F]12 uptake in MDA-MB-231 tumor: decreased [^18F]12 uptake
[3]
  tracer uptake, percent of injected dose per ml, after drug treatment vs baseline: significantly reduced
[4]
  effect of drug on [18F]WC-4-138 uptake in HNSCC cell lines: abolished
